Test results from PubChem BioAssay (NCI).
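1) Cells in 96-well plates. 2) Compound, 48 h, 5 concentrations. 3) Linear interpolation between surrounding doses. 4) Unreached endpoint = highest concentration. GI50: concentration for 50% inhibition of growth. TGI denotes the concentration required for complete inhibition of growth.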

Columns and labels:
Experiment in all cases: NCI-60 cell line screen, 48 h
786-0 renal = tested on: 786-0 renal
SK-MEL-28 melanoma = tested on: SK-MEL-28 melanoma
HCT-116 colon = tested on: HCT-116 colon
ACHN renal = tested on: ACHN renal
CCRF-CEM leukemia = tested on: CCRF-CEM leukemia
RPMI-8226 leukemia = tested on: RPMI-8226 leukemia
HT29 colon = tested on: HT29 colon
LOX IMVI melanoma = tested on: LOX IMVI melanoma
HOP-62 NSCLC = tested on: HOP-62 NSCLC
CAKI-1 renal = tested on: CAKI-1 renal
MALME-3M melanoma = tested on: MALME-3M melanoma
NCI-H522 lung = tested on: NCI-H522 lung
SW-620 colon = tested on: SW-620 colon
OVCAR-5 ovarian = tested on: OVCAR-5 ovarian
MOLT-4 leukemia = tested on: MOLT-4 leukemia
SF-295 CNS = tested on: SF-295 CNS
TK-10 renal = tested on: TK-10 renal
PC-3 prostate = tested on: PC-3 prostate
EKVX NSCLC = tested on: EKVX NSCLC
NCI-H460 lung = tested on: NCI-H460 lung
M14 melanoma = tested on: M14 melanoma
KM12 colon = tested on: KM12 colon
NCI-H23 lung = tested on: NCI-H23 lung
SK-OV-3 ovarian = tested on: SK-OV-3 ovarian
SN12C renal = tested on: SN12C renal
UACC-62 melanoma = tested on: UACC-62 melanoma
HS 578T breast = tested on: HS 578T breast
OVCAR-4 ovarian = tested on: OVCAR-4 ovarian
HL-60(TB) leukemia = tested on: HL-60(TB) leukemia
DU-145 prostate = tested on: DU-145 prostate
UACC-257 melanoma = tested on: UACC-257 melanoma
U251 CNS = tested on: U251 CNS
IGROV1 ovarian = tested on: IGROV1 ovarian
SK-MEL-5 melanoma = tested on: SK-MEL-5 melanoma
SF-268 CNS = tested on: SF-268 CNS
T-47D breast = tested on: T-47D breast
MCF7 breast = tested on: MCF7 breast
MDA-MB-468 breast = tested on: MDA-MB-468 breast
A549 NSCLC = tested on: A549 NSCLC
K-562 leukemia = tested on: K-562 leukemia
A498 renal = tested on: A498 renal
HCC-2998 colon = tested on: HCC-2998 colon
SR leukemia = tested on: SR leukemia
HCT-15 colon = tested on: HCT-15 colon
NCI-H226 lung = tested on: NCI-H226 lung
UO-31 renal = tested on: UO-31 renal
BT-549 breast = tested on: BT-549 breast
HOP-92 NSCLC = tested on: HOP-92 NSCLC
COLO 205 colon = tested on: COLO 205 colon
MDA-MB-435 = tested on: MDA-MB-435
OVCAR-8 ovarian = tested on: OVCAR-8 ovarian
RXF 393 renal = tested on: RXF 393 renal
SF-539 CNS = tested on: SF-539 CNS
SNB-19 CNS = tested on: SNB-19 CNS
MDA-MB-231 breast = tested on: MDA-MB-231 breast
OVCAR-3 ovarian = tested on: OVCAR-3 ovarian
SNB-75 CNS = tested on: SNB-75 CNS
SK-MEL-2 melanoma = tested on: SK-MEL-2 melanoma

In the case of CCOc1ccc(/C=N/NC(=O)Cn2nc(Cc3ccccc3)c3onc(C)c3c2=O)cc1, the GI50 (786-0 renal) is reported as 5.99 µM, the TGI (786-0 renal) is reported as 17.6 µM and the GI50 (SK-MEL-28 melanoma) is reported as > 100 µM. The TGI (SK-MEL-28 melanoma) was > 100 µM, the GI50 (HCT-116 colon) was > 100 µM and the TGI (HCT-116 colon) was > 100 µM. For the same molecule, the GI50 (ACHN renal) was 11.3 µM, the TGI (ACHN renal) was > 52.4 µM and the GI50 (CCRF-CEM leukemia) was > 100 µM. The TGI (CCRF-CEM leukemia) was > 100 µM, the GI50 (RPMI-8226 leukemia) was > 100 µM and the TGI (RPMI-8226 leukemia) was > 100 µM. For the same molecule, the GI50 (HT29 colon) was > 100 µM, the TGI (HT29 colon) was > 100 µM and the GI50 (LOX IMVI melanoma) was > 100 µM. For the same molecule, the TGI (LOX IMVI melanoma) was > 100 µM, the GI50 (HOP-62 NSCLC) was 4.4 µM and the TGI (HOP-62 NSCLC) was 28.4 µM. The GI50 (CAKI-1 renal) was 14 µM, the TGI (CAKI-1 renal) was > 95.8 µM and the GI50 (MALME-3M melanoma) was 12 µM. The TGI (MALME-3M melanoma) was > 100 µM, the GI50 (NCI-H522 lung) was > 31.3 µM and the TGI (NCI-H522 lung) was > 87.2 µM. For the same molecule, the GI50 (SW-620 colon) was > 100 µM, the TGI (SW-620 colon) was > 100 µM and the GI50 (OVCAR-5 ovarian) was > 100 µM. The TGI (OVCAR-5 ovarian) was > 100 µM, the GI50 (MOLT-4 leukemia) was > 100 µM and the TGI (MOLT-4 leukemia) was > 100 µM. For the same molecule, the GI50 (SF-295 CNS) was 14.7 µM, the TGI (SF-295 CNS) was > 61 µM and the GI50 (TK-10 renal) was > 40.2 µM. For the same molecule, the TGI (TK-10 renal) was > 66.2 µM, the GI50 (PC-3 prostate) was > 100 µM and the TGI (PC-3 prostate) was > 100 µM. The GI50 (EKVX NSCLC) was > 100 µM, the TGI (EKVX NSCLC) was > 100 µM and the GI50 (NCI-H460 lung) was > 100 µM. For the same molecule, the TGI (NCI-H460 lung) was > 100 µM, the GI50 (M14 melanoma) was > 21.6 µM and the TGI (M14 melanoma) was > 100 µM. For the same molecule, the GI50 (KM12 colon) was > 100 µM, the TGI (KM12 colon) was > 100 µM and the GI50 (NCI-H23 lung) was 30.4 µM. For the same molecule, the TGI (NCI-H23 lung) was > 100 µM, the GI50 (SK-OV-3 ovarian) was 13.8 µM and the TGI (SK-OV-3 ovarian) was > 66.8 µM. The GI50 (SN12C renal) was > 100 µM, the TGI (SN12C renal) was > 100 µM and the GI50 (UACC-62 melanoma) was > 19.9 µM. The TGI (UACC-62 melanoma) was > 100 µM, the GI50 (HS 578T breast) was 3.57 µM and the TGI (HS 578T breast) was > 25.6 µM. For the same molecule, the GI50 (OVCAR-4 ovarian) was 2930 nM, the TGI (OVCAR-4 ovarian) was > 100 µM and the GI50 (HL-60(TB) leukemia) was > 100 µM. For the same molecule, the TGI (HL-60(TB) leukemia) was > 100 µM, the GI50 (DU-145 prostate) was > 100 µM and the TGI (DU-145 prostate) was > 100 µM. The GI50 (UACC-257 melanoma) was > 100 µM, the TGI (UACC-257 melanoma) was > 100 µM and the GI50 (U251 CNS) was 9.01 µM. For the same molecule, the TGI (U251 CNS) was > 100 µM, the GI50 (IGROV1 ovarian) was 47.4 µM and the TGI (IGROV1 ovarian) was > 100 µM. The GI50 (SK-MEL-5 melanoma) was > 100 µM, the TGI (SK-MEL-5 melanoma) was > 100 µM and the GI50 (SF-268 CNS) was 15.7 µM. The TGI (SF-268 CNS) was > 100 µM, the GI50 (T-47D breast) was > 20.4 µM and the TGI (T-47D breast) was > 100 µM. For the same molecule, the GI50 (MCF7 breast) was > 100 µM, the TGI (MCF7 breast) was > 100 µM and the GI50 (MDA-MB-468 breast) was 9.09 µM. For the same molecule, the TGI (MDA-MB-468 breast) was 44.6 µM, the GI50 (A549 NSCLC) was > 100 µM and the TGI (A549 NSCLC) was > 100 µM. For the same molecule, the GI50 (K-562 leukemia) was > 100 µM, the TGI (K-562 leukemia) was > 100 µM and the GI50 (A498 renal) was 19.9 µM. For the same molecule, the TGI (A498 renal) was > 59.6 µM, the GI50 (HCC-2998 colon) was > 100 µM and the TGI (HCC-2998 colon) was > 100 µM. The GI50 (SR leukemia) was > 100 µM, the TGI (SR leukemia) was > 100 µM and the GI50 (HCT-15 colon) was > 100 µM. For the same molecule, the TGI (HCT-15 colon) was > 100 µM, the GI50 (NCI-H226 lung) was 4.76 µM and the TGI (NCI-H226 lung) was > 24.7 µM. For the same molecule, the GI50 (UO-31 renal) was > 100 µM, the TGI (UO-31 renal) was > 100 µM and the GI50 (BT-549 breast) was 13.5 µM. For the same molecule, the TGI (BT-549 breast) was > 24.8 µM, the GI50 (HOP-92 NSCLC) was 5.71 µM and the TGI (HOP-92 NSCLC) was 21.7 µM. The GI50 (COLO 205 colon) was > 100 µM, the TGI (COLO 205 colon) was > 100 µM and the GI50 (MDA-MB-435) was > 100 µM. The TGI (MDA-MB-435) was > 100 µM, the GI50 (OVCAR-8 ovarian) was > 100 µM and the TGI (OVCAR-8 ovarian) was > 100 µM. For the same molecule, the GI50 (RXF 393 renal) was 5.82 µM, the TGI (RXF 393 renal) was 22.5 µM and the GI50 (SF-539 CNS) was 19.5 µM. The TGI (SF-539 CNS) was > 64.5 µM, the GI50 (SNB-19 CNS) was 16.3 µM and the TGI (SNB-19 CNS) was > 52.4 µM. The GI50 (MDA-MB-231 breast) was 8.26 µM, the TGI (MDA-MB-231 breast) was > 37.6 µM and the GI50 (OVCAR-3 ovarian) was > 100 µM. The TGI (OVCAR-3 ovarian) was > 100 µM, the GI50 (SNB-75 CNS) was 2610 nM and the TGI (SNB-75 CNS) was 13.8 µM. For the same molecule, the GI50 (SK-MEL-2 melanoma) was 15.5 µM and the TGI (SK-MEL-2 melanoma) was 33.1 µM.
